According to ChEMBL document CHEMBL5725788, “Tricyclic heterocyclic compounds as phosphoinositide 3-kinase inhibitors” (2017):

Tests used:
[1] = molecular target: Phosphatidylinositol 4,5-bisphosphate 3-kinase catalytic subunit gamma isoform (Homo sapiens, UniProt P48736); experiment: (§1) Biochemical Assay: PI3K Isoform using biochemical assay.
[2] = molecular target: Phosphatidylinositol 4,5-bisphosphate 3-kinase catalytic subunit beta isoform (Homo sapiens, UniProt P42338); experiment: as §1
[3] = molecular target: Phosphatidylinositol 4,5-bisphosphate 3-kinase catalytic subunit alpha isoform (Homo sapiens, UniProt P42336); experiment: as §1
[4] = molecular target: T1, Phosphatidylinositol 4,5-bisphosphate 3-kinase catalytic subunit delta isoform (Homo sapiens, UniProt O00329); experiment: as §1
T1 sequence (O00329 whole entry): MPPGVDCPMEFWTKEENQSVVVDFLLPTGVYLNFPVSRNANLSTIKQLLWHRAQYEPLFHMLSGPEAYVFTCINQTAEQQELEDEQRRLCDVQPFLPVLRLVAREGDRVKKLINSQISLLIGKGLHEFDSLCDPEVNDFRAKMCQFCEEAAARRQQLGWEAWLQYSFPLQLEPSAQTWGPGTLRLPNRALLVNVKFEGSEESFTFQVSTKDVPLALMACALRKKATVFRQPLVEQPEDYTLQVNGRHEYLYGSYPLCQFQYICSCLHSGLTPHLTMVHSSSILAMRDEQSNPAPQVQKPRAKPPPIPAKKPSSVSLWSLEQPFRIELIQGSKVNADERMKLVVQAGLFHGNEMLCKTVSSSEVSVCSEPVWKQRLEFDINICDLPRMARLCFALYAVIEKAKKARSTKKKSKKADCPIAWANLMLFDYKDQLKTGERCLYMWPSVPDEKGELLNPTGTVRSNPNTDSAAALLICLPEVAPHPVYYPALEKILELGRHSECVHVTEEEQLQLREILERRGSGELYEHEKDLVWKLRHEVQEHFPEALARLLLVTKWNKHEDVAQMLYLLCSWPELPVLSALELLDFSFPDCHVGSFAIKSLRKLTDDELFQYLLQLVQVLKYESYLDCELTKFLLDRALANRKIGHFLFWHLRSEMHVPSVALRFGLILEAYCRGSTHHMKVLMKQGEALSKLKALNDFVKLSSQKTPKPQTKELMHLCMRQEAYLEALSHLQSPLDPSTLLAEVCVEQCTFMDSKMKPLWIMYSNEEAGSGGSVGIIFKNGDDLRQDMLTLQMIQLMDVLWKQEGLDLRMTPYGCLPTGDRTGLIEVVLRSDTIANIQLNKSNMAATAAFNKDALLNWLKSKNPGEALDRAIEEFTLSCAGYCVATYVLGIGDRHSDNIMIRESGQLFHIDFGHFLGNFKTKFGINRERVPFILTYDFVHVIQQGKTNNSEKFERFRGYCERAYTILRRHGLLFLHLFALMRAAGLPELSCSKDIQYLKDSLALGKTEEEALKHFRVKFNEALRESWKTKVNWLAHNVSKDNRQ

Phosphatidylinositol 4,5-bisphosphate 3-kinase catalytic subunit alpha isoform, sequence (P42336 whole entry, canonical isoform): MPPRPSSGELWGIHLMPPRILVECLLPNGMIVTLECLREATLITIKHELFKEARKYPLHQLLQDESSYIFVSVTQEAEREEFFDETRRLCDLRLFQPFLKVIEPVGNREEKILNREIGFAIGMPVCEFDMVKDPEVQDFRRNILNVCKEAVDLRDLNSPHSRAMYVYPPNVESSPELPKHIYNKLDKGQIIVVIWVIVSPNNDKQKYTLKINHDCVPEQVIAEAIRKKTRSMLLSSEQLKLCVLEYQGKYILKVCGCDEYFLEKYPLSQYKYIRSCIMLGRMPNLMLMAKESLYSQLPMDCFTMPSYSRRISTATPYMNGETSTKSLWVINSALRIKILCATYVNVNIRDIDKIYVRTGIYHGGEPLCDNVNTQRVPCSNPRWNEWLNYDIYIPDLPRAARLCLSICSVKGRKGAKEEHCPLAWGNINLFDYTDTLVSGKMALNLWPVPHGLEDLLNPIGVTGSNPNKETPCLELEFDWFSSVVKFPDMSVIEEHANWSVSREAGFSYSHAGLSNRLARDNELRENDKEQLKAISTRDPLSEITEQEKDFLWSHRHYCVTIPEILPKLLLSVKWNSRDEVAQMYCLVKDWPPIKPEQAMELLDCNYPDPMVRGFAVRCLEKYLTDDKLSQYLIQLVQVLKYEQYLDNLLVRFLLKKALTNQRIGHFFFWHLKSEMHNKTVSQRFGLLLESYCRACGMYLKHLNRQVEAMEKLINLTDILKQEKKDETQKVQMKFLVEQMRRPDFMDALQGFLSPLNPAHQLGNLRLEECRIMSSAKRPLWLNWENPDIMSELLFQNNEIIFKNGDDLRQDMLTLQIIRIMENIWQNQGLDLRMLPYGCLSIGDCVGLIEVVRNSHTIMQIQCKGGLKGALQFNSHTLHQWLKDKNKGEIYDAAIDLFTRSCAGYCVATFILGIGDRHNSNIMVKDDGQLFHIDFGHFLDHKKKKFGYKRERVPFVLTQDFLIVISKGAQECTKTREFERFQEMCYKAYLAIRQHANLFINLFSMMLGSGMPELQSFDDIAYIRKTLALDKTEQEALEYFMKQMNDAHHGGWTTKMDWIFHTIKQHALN
Phosphatidylinositol 4,5-bisphosphate 3-kinase catalytic subunit gamma isoform, sequence (P48736 whole entry, canonical isoform): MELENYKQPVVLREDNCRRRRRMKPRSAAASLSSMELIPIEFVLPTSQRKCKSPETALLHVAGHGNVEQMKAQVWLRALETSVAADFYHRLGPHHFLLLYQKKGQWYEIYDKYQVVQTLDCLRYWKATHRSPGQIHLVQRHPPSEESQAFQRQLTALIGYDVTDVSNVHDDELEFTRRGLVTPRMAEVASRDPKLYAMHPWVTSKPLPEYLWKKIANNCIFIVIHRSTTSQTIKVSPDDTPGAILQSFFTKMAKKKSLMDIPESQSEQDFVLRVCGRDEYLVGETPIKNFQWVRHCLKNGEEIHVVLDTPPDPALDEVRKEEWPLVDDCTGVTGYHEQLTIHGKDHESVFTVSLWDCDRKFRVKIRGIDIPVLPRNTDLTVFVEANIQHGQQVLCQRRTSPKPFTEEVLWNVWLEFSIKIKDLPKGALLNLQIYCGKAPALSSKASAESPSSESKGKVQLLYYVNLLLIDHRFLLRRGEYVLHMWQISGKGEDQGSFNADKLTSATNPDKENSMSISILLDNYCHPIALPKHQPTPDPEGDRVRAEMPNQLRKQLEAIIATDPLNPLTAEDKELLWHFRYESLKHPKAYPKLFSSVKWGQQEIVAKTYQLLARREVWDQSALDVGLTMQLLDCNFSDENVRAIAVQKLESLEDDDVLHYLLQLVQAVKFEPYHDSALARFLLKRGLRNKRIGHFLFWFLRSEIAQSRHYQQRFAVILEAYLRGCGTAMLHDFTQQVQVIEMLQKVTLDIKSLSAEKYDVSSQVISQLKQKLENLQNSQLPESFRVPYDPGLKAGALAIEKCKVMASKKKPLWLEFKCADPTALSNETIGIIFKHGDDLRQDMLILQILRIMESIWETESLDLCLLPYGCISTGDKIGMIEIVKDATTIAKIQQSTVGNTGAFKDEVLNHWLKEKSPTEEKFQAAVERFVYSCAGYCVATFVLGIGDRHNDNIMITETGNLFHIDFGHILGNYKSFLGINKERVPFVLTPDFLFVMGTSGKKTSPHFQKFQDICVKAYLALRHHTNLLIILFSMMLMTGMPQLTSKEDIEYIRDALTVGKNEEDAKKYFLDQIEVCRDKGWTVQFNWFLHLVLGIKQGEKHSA
Phosphatidylinositol 4,5-bisphosphate 3-kinase catalytic subunit beta isoform, sequence (P42338 whole entry, canonical isoform): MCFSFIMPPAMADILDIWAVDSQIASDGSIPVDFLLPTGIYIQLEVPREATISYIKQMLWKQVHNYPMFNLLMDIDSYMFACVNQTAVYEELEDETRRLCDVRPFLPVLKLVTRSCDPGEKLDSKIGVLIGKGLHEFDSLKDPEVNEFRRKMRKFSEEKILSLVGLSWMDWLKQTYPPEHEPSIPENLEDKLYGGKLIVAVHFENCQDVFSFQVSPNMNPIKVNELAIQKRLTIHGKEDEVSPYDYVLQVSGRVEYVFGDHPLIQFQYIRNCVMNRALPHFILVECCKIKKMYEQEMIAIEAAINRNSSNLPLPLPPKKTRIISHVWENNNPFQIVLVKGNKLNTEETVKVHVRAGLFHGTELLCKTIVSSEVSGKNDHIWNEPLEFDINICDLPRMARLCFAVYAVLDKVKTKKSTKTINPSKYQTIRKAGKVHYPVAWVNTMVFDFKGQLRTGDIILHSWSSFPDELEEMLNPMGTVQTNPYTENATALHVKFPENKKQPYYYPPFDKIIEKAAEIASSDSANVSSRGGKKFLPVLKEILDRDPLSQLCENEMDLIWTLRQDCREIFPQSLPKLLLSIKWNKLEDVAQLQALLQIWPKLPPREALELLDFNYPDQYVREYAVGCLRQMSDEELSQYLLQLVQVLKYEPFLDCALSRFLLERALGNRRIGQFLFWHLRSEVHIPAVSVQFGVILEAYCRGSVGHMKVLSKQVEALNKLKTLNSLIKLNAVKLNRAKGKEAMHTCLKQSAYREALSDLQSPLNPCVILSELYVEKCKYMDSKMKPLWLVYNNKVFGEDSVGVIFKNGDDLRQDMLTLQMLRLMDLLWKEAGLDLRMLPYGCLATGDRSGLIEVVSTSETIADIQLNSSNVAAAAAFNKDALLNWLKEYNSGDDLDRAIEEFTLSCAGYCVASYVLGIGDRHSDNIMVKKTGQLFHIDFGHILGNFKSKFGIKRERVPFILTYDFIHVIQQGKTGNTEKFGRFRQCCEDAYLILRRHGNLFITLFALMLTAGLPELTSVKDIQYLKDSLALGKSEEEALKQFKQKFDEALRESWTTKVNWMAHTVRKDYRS

## c1cc(-c2nc(N3CCOCC3)c3oc4ncc(CN5CCCCC5)cc4c3n2)c2cc[nH]c2c1
[1]
  IC50: 4950 nM
[2]
  IC50: 503 nM
[3]
  IC50: 508 nM
[4]
  IC50: 10 nM
